According to PMC12106687 (Nature Communications, 2025):

Biological target: HECTD1 (Homo sapiens, UniProt Q9ULT8)
Experiment: in-cell competitive QTRP
Type: biochemical
Details: covalent; C1368; […], […] h in HEK293T cells

HECTD1, sequence (Q9ULT8 whole entry): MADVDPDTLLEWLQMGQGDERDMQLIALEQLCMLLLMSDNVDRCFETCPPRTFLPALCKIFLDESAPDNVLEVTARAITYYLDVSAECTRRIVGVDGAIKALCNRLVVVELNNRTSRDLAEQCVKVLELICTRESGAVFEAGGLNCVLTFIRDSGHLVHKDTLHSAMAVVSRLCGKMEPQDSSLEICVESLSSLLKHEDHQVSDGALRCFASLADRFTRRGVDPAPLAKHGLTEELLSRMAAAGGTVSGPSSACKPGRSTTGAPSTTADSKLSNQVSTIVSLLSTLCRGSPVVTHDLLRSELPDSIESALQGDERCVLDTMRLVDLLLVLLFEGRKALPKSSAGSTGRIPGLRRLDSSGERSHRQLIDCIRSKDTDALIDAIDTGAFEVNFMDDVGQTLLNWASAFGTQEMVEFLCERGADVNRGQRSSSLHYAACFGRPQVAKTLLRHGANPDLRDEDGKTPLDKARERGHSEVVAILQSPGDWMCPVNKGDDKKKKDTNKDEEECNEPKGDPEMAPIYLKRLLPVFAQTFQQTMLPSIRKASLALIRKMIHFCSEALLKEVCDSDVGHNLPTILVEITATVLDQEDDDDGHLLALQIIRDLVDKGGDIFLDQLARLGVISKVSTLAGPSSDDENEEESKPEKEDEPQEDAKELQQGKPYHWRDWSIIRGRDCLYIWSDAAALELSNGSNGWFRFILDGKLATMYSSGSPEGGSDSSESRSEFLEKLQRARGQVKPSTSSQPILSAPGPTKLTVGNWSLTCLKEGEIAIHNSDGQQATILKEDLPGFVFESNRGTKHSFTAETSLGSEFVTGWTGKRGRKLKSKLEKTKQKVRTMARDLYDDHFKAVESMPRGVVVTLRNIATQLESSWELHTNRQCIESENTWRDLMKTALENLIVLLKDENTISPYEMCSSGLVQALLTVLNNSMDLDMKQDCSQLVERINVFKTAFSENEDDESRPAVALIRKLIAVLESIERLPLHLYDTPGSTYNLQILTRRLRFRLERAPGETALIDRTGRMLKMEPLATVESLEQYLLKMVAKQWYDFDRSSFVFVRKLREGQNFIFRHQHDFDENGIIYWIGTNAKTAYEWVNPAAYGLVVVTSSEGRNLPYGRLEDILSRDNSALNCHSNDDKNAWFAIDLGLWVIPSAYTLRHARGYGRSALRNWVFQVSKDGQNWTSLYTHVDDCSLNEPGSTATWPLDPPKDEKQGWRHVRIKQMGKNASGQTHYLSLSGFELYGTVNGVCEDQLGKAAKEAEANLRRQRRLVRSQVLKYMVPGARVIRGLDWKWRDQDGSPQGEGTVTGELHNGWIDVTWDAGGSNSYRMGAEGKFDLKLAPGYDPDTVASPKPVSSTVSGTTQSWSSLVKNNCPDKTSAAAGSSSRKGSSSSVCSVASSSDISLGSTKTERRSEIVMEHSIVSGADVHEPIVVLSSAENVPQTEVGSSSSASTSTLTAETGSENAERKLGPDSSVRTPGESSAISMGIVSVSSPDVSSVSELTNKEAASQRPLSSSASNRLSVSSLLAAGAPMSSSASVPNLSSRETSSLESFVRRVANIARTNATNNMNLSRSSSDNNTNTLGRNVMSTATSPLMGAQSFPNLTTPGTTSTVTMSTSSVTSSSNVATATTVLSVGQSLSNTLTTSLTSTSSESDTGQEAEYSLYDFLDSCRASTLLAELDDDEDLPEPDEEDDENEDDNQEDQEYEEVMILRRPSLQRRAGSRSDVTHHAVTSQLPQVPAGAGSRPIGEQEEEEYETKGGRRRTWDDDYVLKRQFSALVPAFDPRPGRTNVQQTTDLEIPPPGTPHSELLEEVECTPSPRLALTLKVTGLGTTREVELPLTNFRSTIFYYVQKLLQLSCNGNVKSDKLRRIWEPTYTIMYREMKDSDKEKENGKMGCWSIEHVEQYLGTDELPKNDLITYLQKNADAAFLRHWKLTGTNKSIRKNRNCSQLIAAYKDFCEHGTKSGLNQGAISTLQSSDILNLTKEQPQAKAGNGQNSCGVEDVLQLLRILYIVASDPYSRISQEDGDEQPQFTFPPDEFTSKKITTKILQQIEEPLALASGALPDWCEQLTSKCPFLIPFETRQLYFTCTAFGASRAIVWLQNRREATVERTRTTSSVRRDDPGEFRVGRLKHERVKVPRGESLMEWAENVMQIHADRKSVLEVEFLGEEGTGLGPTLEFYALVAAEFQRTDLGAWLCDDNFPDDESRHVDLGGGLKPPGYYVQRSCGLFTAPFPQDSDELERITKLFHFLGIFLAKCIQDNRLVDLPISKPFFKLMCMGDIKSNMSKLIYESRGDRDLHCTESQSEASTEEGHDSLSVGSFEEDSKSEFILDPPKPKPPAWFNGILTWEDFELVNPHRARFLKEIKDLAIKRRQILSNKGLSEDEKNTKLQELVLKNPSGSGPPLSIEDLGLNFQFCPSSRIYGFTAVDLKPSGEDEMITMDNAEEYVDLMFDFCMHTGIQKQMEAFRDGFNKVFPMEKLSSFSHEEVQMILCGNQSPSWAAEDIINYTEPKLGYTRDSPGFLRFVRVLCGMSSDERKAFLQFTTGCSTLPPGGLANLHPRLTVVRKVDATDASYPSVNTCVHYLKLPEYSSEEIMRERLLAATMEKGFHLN

Structure (SMILES): C=C(CC)C(=O)c1ccc(OCC(=O)O)c(Cl)c1Cl [etacrynic acid]
- RH/L: the etacrynic acid-engaged C1368 of HECTD1 is spatially distant from the active site
